Assay results published in patent US9446039B2, “Aminoheteroaryl compounds as MTH1 inhibitors” (CEMM—FORSCHUNGSZENTRUM FÜR MOLEKULARE MEDIZIN GMBH, priority 2012, dated 2016).

What was measured:
Assay type in all cases: binding
[1] = molecular target: T1, SW480 colon carcinoma cells lysate proteins (Homo sapiens, UniProt P51659); conditions: PreyGene HSD17B4
T1 sequence (P51659 1-736): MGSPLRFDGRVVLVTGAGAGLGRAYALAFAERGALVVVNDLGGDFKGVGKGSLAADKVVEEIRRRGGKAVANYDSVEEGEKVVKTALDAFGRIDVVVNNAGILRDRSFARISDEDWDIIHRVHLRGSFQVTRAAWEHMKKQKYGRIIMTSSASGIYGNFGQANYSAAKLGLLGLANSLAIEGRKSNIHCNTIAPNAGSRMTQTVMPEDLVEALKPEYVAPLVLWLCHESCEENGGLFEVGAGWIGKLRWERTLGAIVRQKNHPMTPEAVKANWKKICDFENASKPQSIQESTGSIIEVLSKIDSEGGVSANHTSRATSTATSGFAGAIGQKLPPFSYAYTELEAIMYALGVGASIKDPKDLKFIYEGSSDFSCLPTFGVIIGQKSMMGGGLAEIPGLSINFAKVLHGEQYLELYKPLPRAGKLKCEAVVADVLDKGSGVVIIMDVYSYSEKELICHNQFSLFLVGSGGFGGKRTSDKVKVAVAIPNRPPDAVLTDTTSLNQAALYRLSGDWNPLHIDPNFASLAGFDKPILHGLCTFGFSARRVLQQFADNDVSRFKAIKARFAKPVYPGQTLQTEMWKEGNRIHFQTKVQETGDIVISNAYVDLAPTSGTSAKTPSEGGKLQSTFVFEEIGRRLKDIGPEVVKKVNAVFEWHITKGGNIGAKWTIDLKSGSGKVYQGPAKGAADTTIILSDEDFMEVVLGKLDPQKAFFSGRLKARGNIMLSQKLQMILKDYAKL

[2] = molecular target: SW480 colon carcinoma cells lysate proteins (Homo sapiens, UniProt Q9HB71); conditions: PreyGene CACYBP
SW480 colon carcinoma cells lysate proteins (Homo sapiens, UniProt Q9HB71), sequence (Q9HB71 whole entry): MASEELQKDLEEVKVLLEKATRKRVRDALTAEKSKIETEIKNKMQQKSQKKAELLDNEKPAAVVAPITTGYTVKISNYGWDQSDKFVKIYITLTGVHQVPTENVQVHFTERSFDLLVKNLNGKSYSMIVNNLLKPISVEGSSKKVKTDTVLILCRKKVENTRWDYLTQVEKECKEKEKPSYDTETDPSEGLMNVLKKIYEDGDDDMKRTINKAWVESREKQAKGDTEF

[3] = molecular target: SW480 colon carcinoma cells lysate proteins (Homo sapiens, UniProt Q9NTK5); conditions: PreyGene OLA1; SW480 cells
SW480 colon carcinoma cells lysate proteins (Homo sapiens, UniProt Q9NTK5), sequence (Q9NTK5 whole entry): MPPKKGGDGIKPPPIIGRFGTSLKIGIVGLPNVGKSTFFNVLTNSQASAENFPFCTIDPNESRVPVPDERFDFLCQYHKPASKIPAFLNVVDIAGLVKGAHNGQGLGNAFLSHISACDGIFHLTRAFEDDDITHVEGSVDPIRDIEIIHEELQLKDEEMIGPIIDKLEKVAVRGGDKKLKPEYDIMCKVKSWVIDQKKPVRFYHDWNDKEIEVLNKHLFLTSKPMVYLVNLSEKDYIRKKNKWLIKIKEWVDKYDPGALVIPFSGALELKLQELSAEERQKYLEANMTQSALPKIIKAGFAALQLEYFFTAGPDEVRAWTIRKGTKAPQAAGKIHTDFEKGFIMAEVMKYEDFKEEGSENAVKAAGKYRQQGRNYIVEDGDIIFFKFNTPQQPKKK

[4] = molecular target: SW480 colon carcinoma cells lysate proteins (Homo sapiens, UniProt Q14152); conditions: PreyGene EIF3A; SW480 cells
SW480 colon carcinoma cells lysate proteins (Homo sapiens, UniProt Q14152), sequence (Q14152 whole entry): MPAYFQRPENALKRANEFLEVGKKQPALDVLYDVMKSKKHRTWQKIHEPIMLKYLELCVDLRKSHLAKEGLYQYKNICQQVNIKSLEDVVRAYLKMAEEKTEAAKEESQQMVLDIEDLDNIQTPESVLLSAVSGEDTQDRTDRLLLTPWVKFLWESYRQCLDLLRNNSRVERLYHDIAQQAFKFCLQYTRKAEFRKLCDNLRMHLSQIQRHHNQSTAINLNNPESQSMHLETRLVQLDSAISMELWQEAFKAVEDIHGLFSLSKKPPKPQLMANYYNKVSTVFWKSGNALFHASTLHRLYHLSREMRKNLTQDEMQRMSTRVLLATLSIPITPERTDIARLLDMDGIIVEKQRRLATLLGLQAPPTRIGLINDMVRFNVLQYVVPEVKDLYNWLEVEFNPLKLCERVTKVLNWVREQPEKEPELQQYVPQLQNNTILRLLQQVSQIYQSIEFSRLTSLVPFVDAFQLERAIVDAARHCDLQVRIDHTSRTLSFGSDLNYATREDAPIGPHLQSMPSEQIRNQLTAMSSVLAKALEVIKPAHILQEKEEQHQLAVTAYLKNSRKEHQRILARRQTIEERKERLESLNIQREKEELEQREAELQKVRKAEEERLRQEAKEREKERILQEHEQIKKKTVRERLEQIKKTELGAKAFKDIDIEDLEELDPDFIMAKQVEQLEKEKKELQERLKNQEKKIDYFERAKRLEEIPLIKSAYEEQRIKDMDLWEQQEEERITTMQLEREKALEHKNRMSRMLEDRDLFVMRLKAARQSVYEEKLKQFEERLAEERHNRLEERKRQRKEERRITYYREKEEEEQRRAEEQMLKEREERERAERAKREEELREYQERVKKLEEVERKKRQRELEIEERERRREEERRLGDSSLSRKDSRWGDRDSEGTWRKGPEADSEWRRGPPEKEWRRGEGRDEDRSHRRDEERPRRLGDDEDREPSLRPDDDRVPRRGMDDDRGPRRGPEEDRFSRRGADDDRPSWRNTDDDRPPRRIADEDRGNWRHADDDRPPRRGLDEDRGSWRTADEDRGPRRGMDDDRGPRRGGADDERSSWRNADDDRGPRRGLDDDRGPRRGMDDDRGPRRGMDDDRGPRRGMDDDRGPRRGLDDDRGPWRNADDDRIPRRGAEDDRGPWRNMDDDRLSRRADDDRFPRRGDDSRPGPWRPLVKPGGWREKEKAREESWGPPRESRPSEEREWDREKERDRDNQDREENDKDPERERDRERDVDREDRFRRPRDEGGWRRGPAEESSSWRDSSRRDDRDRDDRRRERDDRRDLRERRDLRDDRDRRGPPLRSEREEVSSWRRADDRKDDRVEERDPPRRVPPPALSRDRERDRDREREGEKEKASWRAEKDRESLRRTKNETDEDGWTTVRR

[5] = molecular target: SW480 colon carcinoma cells lysate proteins (Homo sapiens, UniProt P49327); conditions: PreyGene FASN
SW480 colon carcinoma cells lysate proteins (Homo sapiens, UniProt P49327), sequence (P49327 whole entry): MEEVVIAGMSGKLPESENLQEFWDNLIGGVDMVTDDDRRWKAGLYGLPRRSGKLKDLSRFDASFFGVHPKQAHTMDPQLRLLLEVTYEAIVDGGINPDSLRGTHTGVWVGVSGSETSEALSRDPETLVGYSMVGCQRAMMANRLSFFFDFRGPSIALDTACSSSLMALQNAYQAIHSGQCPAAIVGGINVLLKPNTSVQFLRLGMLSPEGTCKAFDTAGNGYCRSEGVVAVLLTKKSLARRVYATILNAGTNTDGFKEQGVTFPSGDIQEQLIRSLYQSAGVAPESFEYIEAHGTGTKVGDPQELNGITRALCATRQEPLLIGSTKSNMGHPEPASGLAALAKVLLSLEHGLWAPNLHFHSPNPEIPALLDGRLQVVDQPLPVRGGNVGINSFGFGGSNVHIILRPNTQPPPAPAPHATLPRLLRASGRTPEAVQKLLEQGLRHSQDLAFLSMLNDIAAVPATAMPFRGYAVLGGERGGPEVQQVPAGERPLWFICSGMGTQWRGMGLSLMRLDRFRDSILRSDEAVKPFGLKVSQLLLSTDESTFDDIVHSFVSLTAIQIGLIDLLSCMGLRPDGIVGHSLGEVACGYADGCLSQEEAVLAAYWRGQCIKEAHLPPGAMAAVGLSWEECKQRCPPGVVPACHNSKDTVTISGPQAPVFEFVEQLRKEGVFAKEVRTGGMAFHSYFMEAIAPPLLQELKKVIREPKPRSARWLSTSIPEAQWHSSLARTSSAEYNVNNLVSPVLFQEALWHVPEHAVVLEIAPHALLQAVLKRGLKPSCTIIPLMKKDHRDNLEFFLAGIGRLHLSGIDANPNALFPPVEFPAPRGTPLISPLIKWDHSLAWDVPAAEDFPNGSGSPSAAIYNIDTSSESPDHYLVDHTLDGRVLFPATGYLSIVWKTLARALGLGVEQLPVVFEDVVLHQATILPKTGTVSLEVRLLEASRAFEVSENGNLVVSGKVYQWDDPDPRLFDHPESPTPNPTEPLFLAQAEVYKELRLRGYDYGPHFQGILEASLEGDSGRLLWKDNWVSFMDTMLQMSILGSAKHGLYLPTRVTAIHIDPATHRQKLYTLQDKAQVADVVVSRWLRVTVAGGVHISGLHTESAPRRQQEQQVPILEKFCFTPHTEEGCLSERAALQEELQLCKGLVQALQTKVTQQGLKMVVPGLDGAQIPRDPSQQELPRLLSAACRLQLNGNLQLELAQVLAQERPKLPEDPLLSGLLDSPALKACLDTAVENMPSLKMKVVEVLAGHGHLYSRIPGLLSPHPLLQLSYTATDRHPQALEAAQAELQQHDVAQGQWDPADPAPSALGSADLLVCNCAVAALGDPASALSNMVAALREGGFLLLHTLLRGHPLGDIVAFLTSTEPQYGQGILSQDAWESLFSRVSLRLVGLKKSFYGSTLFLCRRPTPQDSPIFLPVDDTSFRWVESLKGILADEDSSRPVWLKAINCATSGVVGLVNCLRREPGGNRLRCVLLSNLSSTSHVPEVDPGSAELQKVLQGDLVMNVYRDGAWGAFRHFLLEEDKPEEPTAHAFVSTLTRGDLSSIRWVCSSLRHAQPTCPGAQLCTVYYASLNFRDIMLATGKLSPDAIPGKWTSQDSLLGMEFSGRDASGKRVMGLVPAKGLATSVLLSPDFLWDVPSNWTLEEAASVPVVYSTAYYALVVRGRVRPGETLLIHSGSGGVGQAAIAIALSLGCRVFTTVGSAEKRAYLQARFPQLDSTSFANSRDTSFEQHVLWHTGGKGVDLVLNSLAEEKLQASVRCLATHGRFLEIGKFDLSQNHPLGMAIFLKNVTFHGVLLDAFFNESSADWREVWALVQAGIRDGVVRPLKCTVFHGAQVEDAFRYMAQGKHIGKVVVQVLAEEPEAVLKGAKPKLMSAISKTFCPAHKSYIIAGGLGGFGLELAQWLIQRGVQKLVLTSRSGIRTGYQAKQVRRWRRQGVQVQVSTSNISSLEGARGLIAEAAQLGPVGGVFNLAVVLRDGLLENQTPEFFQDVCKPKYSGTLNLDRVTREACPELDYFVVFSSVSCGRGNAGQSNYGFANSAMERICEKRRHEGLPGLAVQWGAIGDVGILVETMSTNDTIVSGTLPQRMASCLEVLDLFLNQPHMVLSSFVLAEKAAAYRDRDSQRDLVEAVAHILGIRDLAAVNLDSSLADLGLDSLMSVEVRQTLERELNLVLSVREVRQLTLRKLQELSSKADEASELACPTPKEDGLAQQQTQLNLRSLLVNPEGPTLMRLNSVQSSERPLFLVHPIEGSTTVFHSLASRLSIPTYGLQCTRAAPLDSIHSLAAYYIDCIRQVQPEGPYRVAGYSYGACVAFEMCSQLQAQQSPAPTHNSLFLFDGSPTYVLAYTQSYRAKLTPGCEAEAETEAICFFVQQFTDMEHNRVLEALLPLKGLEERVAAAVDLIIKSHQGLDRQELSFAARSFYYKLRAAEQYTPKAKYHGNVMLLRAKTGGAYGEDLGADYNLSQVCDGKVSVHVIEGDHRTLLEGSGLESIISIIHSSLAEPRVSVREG

[6] = molecular target: SW480 colon carcinoma cells lysate proteins (Homo sapiens, UniProt P30153); conditions: PreyGene PPP2R1A
[7] = molecular target: SW480 colon carcinoma cells lysate proteins (Homo sapiens, UniProt O43399); conditions: PreyGene TPD52L2
SW480 colon carcinoma cells lysate proteins (Homo sapiens, UniProt O43399), sequence (O43399 whole entry): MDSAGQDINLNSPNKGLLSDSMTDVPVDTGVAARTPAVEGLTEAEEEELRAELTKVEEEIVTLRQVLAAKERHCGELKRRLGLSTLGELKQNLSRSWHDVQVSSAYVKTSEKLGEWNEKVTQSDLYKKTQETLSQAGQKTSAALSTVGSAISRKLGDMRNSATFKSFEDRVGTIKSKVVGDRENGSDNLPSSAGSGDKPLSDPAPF

[8] = molecular target: SW480 colon carcinoma cells lysate proteins (Homo sapiens, UniProt P12004); conditions: PreyGene PCNA
SW480 colon carcinoma cells lysate proteins (Homo sapiens, UniProt P12004), sequence (P12004 whole entry): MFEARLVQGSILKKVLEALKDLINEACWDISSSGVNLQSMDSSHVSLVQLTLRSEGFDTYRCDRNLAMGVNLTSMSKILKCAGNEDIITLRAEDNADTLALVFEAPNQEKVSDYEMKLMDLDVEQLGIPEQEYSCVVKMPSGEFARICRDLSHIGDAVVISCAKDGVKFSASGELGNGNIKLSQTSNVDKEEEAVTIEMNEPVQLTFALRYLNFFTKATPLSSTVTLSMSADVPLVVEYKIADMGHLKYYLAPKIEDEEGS

[9] = molecular target: T2, SW480 colon carcinoma cells lysate proteins (Homo sapiens, UniProt P35527); conditions: PreyGene KRT9
T2 sequence (P35527 1-623): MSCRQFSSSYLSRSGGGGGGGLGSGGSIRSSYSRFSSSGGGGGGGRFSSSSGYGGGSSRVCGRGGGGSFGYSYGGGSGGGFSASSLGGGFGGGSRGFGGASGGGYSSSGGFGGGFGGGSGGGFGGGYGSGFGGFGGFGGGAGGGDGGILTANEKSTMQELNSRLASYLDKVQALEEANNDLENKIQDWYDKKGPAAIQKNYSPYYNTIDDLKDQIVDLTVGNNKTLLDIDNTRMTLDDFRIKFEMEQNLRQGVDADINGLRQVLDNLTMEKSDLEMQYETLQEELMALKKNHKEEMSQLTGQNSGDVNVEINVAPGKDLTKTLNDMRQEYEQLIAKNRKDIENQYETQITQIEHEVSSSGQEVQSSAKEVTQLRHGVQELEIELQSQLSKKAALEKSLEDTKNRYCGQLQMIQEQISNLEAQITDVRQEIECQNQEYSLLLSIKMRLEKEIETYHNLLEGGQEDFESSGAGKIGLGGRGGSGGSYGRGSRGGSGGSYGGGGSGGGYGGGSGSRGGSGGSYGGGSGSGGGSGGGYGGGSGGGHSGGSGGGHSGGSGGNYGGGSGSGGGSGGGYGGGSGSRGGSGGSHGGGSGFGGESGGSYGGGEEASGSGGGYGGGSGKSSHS

C[C@H](Oc1cc(-c2cnn(C3CCNCC3)c2)cnc1N)c1c(Cl)ccc(F)c1Cl [(5)-crizotinib]
AvgP [1]: 0.3179
SC.Exp. 1-1 [1]: 2
SC.Exp. 1-2 [1]: 3
SC.Exp. 2-1 [1]: 0
SC.Exp. 2-2 [1]: 0
Sum (SC.Exp.) [1]: 5
AvgP [2]: 0.392
SC.Exp. 1-1 [2]: 2
SC.Exp. 1-2 [2]: 2
SC.Exp. 2-1 [2]: 0
SC.Exp. 2-2 [2]: 0
Sum (SC.Exp.) [2]: 4
AvgP [3]: 0
SC.Exp. 1-1 [3]: 1
SC.Exp. 1-2 [3]: 1
SC.Exp. 2-1 [3]: 0
SC.Exp. 2-2 [3]: 0
SC.Exp. Sum [3]: 2
AvgP [4]: 0
SC.Exp. 1-1 [4]: 9
SC.Exp. 1-2 [4]: 7
SC.Exp. 2-1 [4]: 7
SC.Exp. 2-2 [4]: 6
SC.Exp. Sum [4]: 29
AvgP [5]: 0.394
SC.Exp. 1-1 [5]: 8
SC.Exp. 1-2 [5]: 8
SC.Exp. 2-1 [5]: 0
SC.Exp. 2-2 [5]: 0
Sum (SC.Exp.) [5]: 16
AvgP [6]: 0.4042
SC.Exp. 1-1 [6]: 3
SC.Exp. 1-2 [6]: 3
SC.Exp. 2-1 [6]: 0
SC.Exp. 2-2 [6]: 0
Sum (SC.Exp.) [6]: 6
AvgP [7]: 0.191
SC.Exp. 1-1 [7]: 0
SC.Exp. 1-2 [7]: 2
SC.Exp. 2-1 [7]: 0
SC.Exp. 2-2 [7]: 0
Sum (SC.Exp.) [7]: 2
AvgP [8]: 0.3137
SC.Exp. 1-1 [8]: 2
SC.Exp. 1-2 [8]: 1
SC.Exp. 2-1 [8]: 0
SC.Exp. 2-2 [8]: 0
Sum (SC.Exp.) [8]: 3
AvgP [9]: 0.1979
SC.Exp. 1-1 [9]: 18
SC.Exp. 1-2 [9]: 15
SC.Exp. 2-1 [9]: 4
SC.Exp. 2-2 [9]: 6
Sum (SC.Exp.) [9]: 43
